No end group written: not given here.
Columns and labels:
Assay type in all cases: cell-based
[1] = test system: Mgpp3 murine proneural glioma cells; experiment: Cell number after peptide treatment, Mgpp3; conditions: 6 days, 0 μM to 50 μM; stock without BSA
Procedure: Replicate cultures were exposed to the peptides the for 6 days at the indicated concentrations. Stock solutions of the peptides were prepared in buffer without added bovine serum albumin (BSA).

normal human astrocytes = experiment: Survival after peptide treatment, astrocytes; conditions: 6 days, 0 μM to 50 μM; stock without BSA
Procedure: Replicate cultures of HIEC-6 non-cancer human intestinal epithelial cells, MCF10A non-cancer human breast epithelial cells, or normal human astrocytes were exposed to CP-DN-CEBPB or CP-DN-CEBPD, for 6 days at doses of 0 μM to 50 μM. […] Stock solutions of the peptides were prepared in buffer without added bovine serum albumin (BSA).

MDA-MB 231 cells [2] = experiment: Colony forming activity in soft agar, MDA-MB 231; conditions: 6 days; doses 0.05, 0.5 and 5 μM
Procedure: (§1) T98G (FIG. 21A), MDA-MB 231 (FIG. 21B), and HCT116 (FIG. 21C) cells were exposed to CP-DN-CEBPB and CP-DN-CEBPD for 6 days at doses of 0.05 μM 0.5 μM, and 5 μM while growing in soft agar. Growth was inhibited by does as low as 0.5 μM. T98G (FIG. 21D), MDA-MB 231 (FIG. 21E), and HCT116 (FIG. 21F) cells were exposed to CP-DN-CEBPB and CP-DN-CEBPD for 6 days at doses of 0.05 μM 0.5 μM, and 5 μM while growing on culture plates. Growth was inhibited by does as low as 0.5 μM.

T98G cells [3] = experiment: Colony forming activity on culture plates, T98G; conditions: 6 days; doses 0.05, 0.5 and 5 μM
Procedure: as §1

MDA-MB 231 cells [4] = experiment: Scratch migration assay, MDA-MB 231; conditions: 20 hours, 20 μM or 40 μM
Procedure: Monolayers of MDA-MB 231 or T98G cells were subjected to formation of a scratch at 0 time and cultured for 20 hours in 20 μM or 40 μM CP-DN-CEBPB and CP-DN-CEBPD. Multiple images taken at 0 time and after 20 hours were analyzed for gap width of the scratches into which cells migrated or not. Example images for T98G are found in FIG. 22A, with compiled data for the T98G samples in FIG. 22B. Example images for MDA-MB 231 are found in FIG. 22C, with compiled data for the MDA-MB 231 samples in FIG. 22D.

[5] = test system: MCF10A non-cancer human breast epithelial cells; experiment: Morphology after peptide treatment, MCF10A; conditions: 5 to 6 days, 20 μM or 50; stock without BSA
Procedure: Stock solutions of the peptides were prepared in buffer without added bovine serum albumin (BSA).

T98G cells [6] = experiment: Apoptotic nuclei, propidium iodide flow cytometry, T98G; conditions: 20 μM, 3 days, vs untreated cells
Procedure: MDA-MB-231, MCF7, HCT116 and T98G cancer cell lines were treated for 3 days with 20 μM CP-dn-CEBPB and CP-dn-CEBPD peptides from stock solutions prepared without additives. Cultures were stained with propidium iodide and assessed for proportion of cells with apoptotic nuclei by flow cytometry.

[7] = test system: MDA-MB-231, MCF7, HCT116 and T98G cancer cell lines; experiment: PI-Annexin staining and flow cytometry, cancer cell lines; conditions: 20 μM, 3 days
Procedure: MDA-MB-231, MCF7, HCT116 and T98G cancer cell lines and HIEC-6 non-cancer cell lines were treated for 3 days with 20 μM CP-dn-CEBPB and CP-dn-CEBPD peptides from stock solutions prepared without additives, followed by PI-Annexin staining and flow cytometry. Numbers in upper and lower quadrants indicate % of cells in early (lower) or late (upper) apoptotic phase.

MCF7 cells = experiment: Combination with paclitaxel, cell number, MCF7; conditions: 1 nM or 5 nM paclitaxel and 3, 10 or 20 μM peptide, 6 days
Procedure: Replicate cultures of T98G, MDA-MB 231, and MCF7 cells were treated with 1 nM or 5 nM paclitaxel and 3 μM, 10 μM, or 20 μM CP-dn-CEBPB and CP-dn-CEBPD peptides, maintained for 6 days, and then assessed for cell number. The bar graphs of FIGS. 26A (T98G, CP-dn-CEBPB), 26C (T98G, CP-dn-CEBPBD, 26E (MDA-MB-231, CP-dn-CEBPBD), 26G (MDA-MB-231, CP-dn-CEBPD), 26I (MCF7, CP-dn-CEBPBB), and 26K (MCF7, CP-dn-CEBPBD) show relative cell numbers for each condition as compared to untreated controls. The line graphs of FIGS. 26B (T98G, CP-dn-CEBPB), 26D (T98G, CP-dn-CEBPBD), 26F (MDA-MB-231, CP-dn-CEBPB), 26H (MDA-MB-231, CP-dn-CEBPD), 26J (MCF7, CP-dn-CEBPB), and 26L (MCF7 CP-dn-CEBPBD) show the response as normalized in each case so that 100 represents the relative number of surviving cells that received the indicated level of paclitaxel, but no peptide treatment. Calculated combination indices (CI) were as follows: MCF7: CI=0.41±0.04 for CP-dn-CEBPB; 0.44±0.04 for CP-dn-CEBPD; MDA-MB-231: 0.74±0.03 for CP-dn-CEBPB; 0.74±0.05 for CP-dn-CEBPD; T98G: CI=0.84±0.06 for CP-dn-CEBPB and 0.75±0.07 for CP-dn-CEBPD.

[8] = test system: paclitaxel-resistant T98G cells; experiment: Cell number, paclitaxel-resistant T98G cells; conditions: 6 days; 0 μM to 50 μM peptide or 0 nM to 50 nM paclitaxel
Procedure: Replicate cultures of T98G wild type cells and paclitaxel-resistant T98G cells were treated with 0 nM to 50 nM paclitaxel or 0 μM to 50 μM CP-dn-CEBPB or CP-dn-CEBPD peptides, maintained for 6 days, and then assessed for cell number. Paclitaxel resistant T98G cells were inhibited by both CP-dn-CEBPB (FIG. 28A) and CP-dn-CEBPD (FIG. 28B), but, as expected were not inhibited by paclitaxel (FIG. 28C). This establishes that CP-dn-CEBPB and CP-dn-CEBPD may be effective against chemotherapy-resistant cells.

| Sequence | growth and survival of Mgpp3 cells [1] | survival of astrocytes (normal human astrocytes) | lowest dose at which growth was inhibited, soft agar (MDA-MB 231 cells [2]) | lowest dose at which growth was inhibited, culture plates (T98G cells [3]) | cell migration into scratch (gap width) (MDA-MB 231 cells [4]) | morphology of MCF10A cells [5] | proportion of cells with apoptotic nuclei (T98G cells [6]) | apoptotic death (early or late apoptotic phase) [7] | combination index (CI) with paclitaxel (MCF7 cells) | inhibition of paclitaxel-resistant T98G cells (cell number) [8] |
| --- | --- | --- | --- | --- | --- | --- | --- | --- | --- | --- |
| RQIKIWFQNRRMKWKKLETQHKVLELTAENERLQKKVEQLSRELSTLRNLFKQL [CP-DN-CEBPB] | decrease in growth and survival | neither CP-DN-CEBPB or CP-DN-CEBPD affected survival of astrocyte | 0.5 µM | 0.5 µM | able to inhibit migration | did not affect the morphology | increased apoptotic cell death | caused apoptotic death in multiple cancer cell lines | 0.41±0.04 | inhibited |
| RQIKIWFQNRRMKWKKLVELSAENEKLHQRVEQLTRDLAGLRQFFK [CP-DN-CEBPD] | decrease in growth and survival | neither CP-DN-CEBPB or CP-DN-CEBPD affected survival of astrocyte | 0.5 µM | 0.5 µM | able to inhibit migration | did not affect the morphology | increased apoptotic cell death | caused apoptotic death in multiple cancer cell lines | 0.44±0.04 | inhibited |
